Results from US20220323389A1, “TREATING NON-ALCOHOLIC FATTY LIVER DISEASE AND INFLAMMATORY STEATOHEPATITIS WITH SLC25A1 INHIBITORS” (GEORGETOWN UNIVERSITY, priority 2019, published 2022).

How the values were obtained:
[1] = tested on: C57Bl/6J mice fed with the HFD; assay: Diet-Induced-Obesity (DIO) model: body weight, fat and organ weights of HFD-fed mice; assay type: in vivo
Excerpt: (§1) Cells, reagents, antibodies, primers. CTPI-2 was purchased from Enamine Ltd. (Monmouth Jct, N.J.). The anti-SLC25A1 antibody used in immunoblots was either from Santa Cruz Biotech (Dallas, Tex.), (#sc-86392), employed at 1:1000 dilution, or from Proteintech (15235-1-AP, Rosemont, Ill.), employed at 1:1000 dilution. Mice and diets. For the majority of the experiments (except for experiments harboring genetic alterations of the Slc25a1 gene), DIO C57BL/6J mice were purchased from Jackson Laboratory (Bar Harbor, Me.) between 4-6 weeks of age. Mice were acclimated in the Georgetown University animal facility for at least one week. At the indicated times, mice were randomized to a standard laboratory chow diet (Labdiet #5053, St. Louis, Mo.) or the high fat diet (Researchdiets D12492, New Brunswick, N.J.), with 60% calories derived from fat (lard), and 20% from sucrose. During the course of the experiments, mice were housed at one mouse per cage and food consumption was measured regularly. Animals were maintained in a normal light-cycle and provided with water ad libitum. CTPI-2 treatment. CTPI-2 was administered at 50 mg/kg via intra-peritoneal injection on alternate days. CTPI-2 was diluted either in DMSO (at 0.2% final concentration) using DMSO as vehicle control, or in 0.47% Sodium Bicarbonate (NaCO3) at a final concentration of 14 mM. NaCO3 (0.47%) served as vehicle control. Immunoblot of murine tissues. Frozen tissue samples were homogenized in radioimmunoprecipitation (RIPA) buffer with protease inhibitor cocktails. Protein quantification was done by using a Coomassie (Bradford) Protein Assay Kit (Pierce, Waltham Mass.). Equal amount of protein lysate was loaded and separated by Novex™ 4-20% Tris-Glycine Mini Gel (Invitrogen, Carlsbad, Calif.), then transferred to a PVDF membrane. Appropriate horseradish peroxidase-conjugated secondary antibody (Invitrogen) was applied after incubation with primary antibody. SuperSignal™ West Pico PLUS Chemiluminescent Substrate (Thermo Fisher Scientific, Waltham, Mass.) was used for protein detection. SLC25a1 strains. The original Slc25a1 tm1a strain was purchased from the Mutant Mouse Resource and Research Center (MMRRC, Chapel Hill, N.C.) (C57BL/6N-Slc25a1^tm1a(EUCOMM)Wtsi, RRID: MMRRC_042258-UCD). The Tg(Alb-cre)21M (Alb-Cre) mice were purchased from Jackson Laboratory (#003574). Slc25a1^+/−, Slc25a1^fl/fl and Alb/Cre mice were genotyped by conventional PCR with genomic DNA extracted from the mouse tail biopsies. Agarose gel electrophoresis was used for analysis of PCR product analysis. The PCR conditions used were as follows: 95° C. for 4 minutes, followed by 40 cycles (95° C. for 30 seconds, 65° C. for 30 seconds, and 72° C. for 50 seconds), 72° C. for 2 min then kept in 4° C. before used. Histological Analysis. Assessment of steatosis was performed on paraffin embedded H&E stained sections derived from 3-6 animals and on multiple images for each animal. The steatosis grade was scored according to the degree of liver involvement with 0, <5%; 1, 5% to 33%; 2, 33% to 50%; and 3, >50%. Alternatively, the percentage of steatosis per area was calculated with ImageJ program. Lypidomic analysis. Targeted quantitation of triglycerides was performed using multiple reaction monitoring mass spectrometry. The samples were resolved on an CORTECS T3 2.7 μm, 2.1×30 mm column online with a triple quadrupole mass spectrometer (Xevo-TQ-S, Waters Corporation, Milford, Mass.) operating in the multiple reaction monitoring (MRM) mode. Signal intensities from all MRM Q1/Q3 ion pairs for triglycerides were ranked to ensure selection of the most intense precursor and fragment ion pair for MRM-based quantitation. […] The LC and MRM method used here for the study was developed by Waters Corporation. The metabolite ratios were calculated by normalizing the peak area of endogenous metabolites within tissue samples normalized to the internal standard. Processed data was normalized with respect to tissue weight taken for analysis. […]

[2] = tested on: mice fed with a normal diet; assay: Body weight of mice fed control (normal) diet and treated with CTPI-2; assay type: in vivo; details: CTPI-2 for 5 months
Excerpt: Cells, reagents, antibodies, primers. CTPI-2 was purchased from Enamine Ltd. (Monmouth Jct, N.J.). The anti-SLC25A1 antibody used in immunoblots was either from Santa Cruz Biotech (Dallas, Tex.), (#sc-86392), employed at 1:1000 dilution, or from Proteintech (15235-1-AP, Rosemont, Ill.), employed at 1:1000 dilution. Mice and diets. For the majority of the experiments (except for experiments harboring genetic alterations of the Slc25a1 gene), DIO C57BL/6J mice were purchased from Jackson Laboratory (Bar Harbor, Me.) between 4-6 weeks of age. Mice were acclimated in the Georgetown University animal facility for at least one week. […] During the course of the experiments, mice were housed at one mouse per cage and food consumption was measured regularly. […] Protein quantification was done by using a Coomassie (Bradford) Protein Assay Kit (Pierce, Waltham Mass.). […] The steatosis grade was scored according to the degree of liver involvement with 0, <5%; 1, 5% to 33%; 2, 33% to 50%; and 3, >50%. Alternatively, the percentage of steatosis per area was calculated with ImageJ program. […] Targeted quantitation of triglycerides was performed using multiple reaction monitoring mass spectrometry. […] Signal intensities from all MRM Q1/Q3 ion pairs for triglycerides were ranked to ensure selection of the most intense precursor and fragment ion pair for MRM-based quantitation. […]

liver of HFD-fed mice [3] = assay: Liver steatosis / steatohepatitis histology and serum chemistry in HFD-fed mice (time course); assay type: in vivo, mouse
Excerpt: as §1

HFD-fed mice [4] = assay: Glucose homeostasis in HFD-fed mice (fasting glucose, GTT, ITT); assay type: in vivo, mouse
Excerpt: (§2) Cells, reagents, antibodies, primers. CTPI-2 was purchased from Enamine Ltd. (Monmouth Jct, N.J.). The anti-SLC25A1 antibody used in immunoblots was either from Santa Cruz Biotech (Dallas, Tex.), (#sc-86392), employed at 1:1000 dilution, or from Proteintech (15235-1-AP, Rosemont, Ill.), employed at 1:1000 dilution. Mice and diets. For the majority of the experiments (except for experiments harboring genetic alterations of the Slc25a1 gene), DIO C57BL/6J mice were purchased from Jackson Laboratory (Bar Harbor, Me.) between 4-6 weeks of age. Mice were acclimated in the Georgetown University animal facility for at least one week. At the indicated times, mice were randomized to a standard laboratory chow diet (Labdiet #5053, St. Louis, Mo.) or the high fat diet (Researchdiets D12492, New Brunswick, N.J.), with 60% calories derived from fat (lard), and 20% from sucrose. During the course of the experiments, mice were housed at one mouse per cage and food consumption was measured regularly. Animals were maintained in a normal light-cycle and provided with water ad libitum. CTPI-2 treatment. CTPI-2 was administered at 50 mg/kg via intra-peritoneal injection on alternate days. […] Protein quantification was done by using a Coomassie (Bradford) Protein Assay Kit (Pierce, Waltham Mass.). […] The steatosis grade was scored according to the degree of liver involvement with 0, <5%; 1, 5% to 33%; 2, 33% to 50%; and 3, >50%. Alternatively, the percentage of steatosis per area was calculated with ImageJ program. […] Targeted quantitation of triglycerides was performed using multiple reaction monitoring mass spectrometry. […] Signal intensities from all MRM Q1/Q3 ion pairs for triglycerides were ranked to ensure selection of the most intense precursor and fragment ion pair for MRM-based quantitation. […] The metabolite ratios were calculated by normalizing the peak area of endogenous metabolites within tissue samples normalized to the internal standard. […]

SLC25A1 [5] = assay: Immunoblot of SLC25A1 protein in tissues of HFD-fed mice; assay type: in vivo, mouse
Excerpt: as §2

HFD-fed mice [6] = assay: Inflammation and fibrosis in HFD-fed mice (serum interleukins, macrophage IHC, RT-PCR, Picro-Sirius Red); assay type: in vivo, mouse
Excerpt: as §1

[7] = tested on: liver gene expression program induced by the HFD; assay: RNAseq, RT-qPCR and immunoblot of liver (and WAT) of HFD-fed mice; assay type: in vivo, mouse
Excerpt: as §1

liver of HFD-fed mice [8] = assay: Liver metabolites and lipid profile (LC-MS, Lipidyzer) in HFD-fed mice; assay type: in vivo, mouse
Excerpt: as §1

HepG2 cells = assay: mRNA levels (RT-qPCR) in tissue culture cells treated with CTPI-2 with or without citrate; assay type: cell-based
Description: FIGS. 6 A-B show citrate and Ac-CoA levels derived from liver extracts of HFD-vehicle (light) or HFD+CTPI-2 (dark). FIGS. 6C-D show levels of the indicated triacylglycerides (TAG, (FIG. 6C)) and total fatty acids (FA, panel D) detected with the Lipidyzer platform. N=2-3 mice per group. FIG. 6E-F show levels of the indicated metabolites detected with targeted LC-MS analysis. […] The indicated mRNA levels were analyzed with RT-qPCR. H. Model summarizing findings as explained in the Examples. Bars indicate Standard Deviations. *p≤0.05, **p≤0.01, ***p≤0.001.
To corroborate the direct effect of CTPI-2 and of citrate in the regulation of the genes identified by our analysis, the effects of the drug and of citrate supplementation in tissue culture cells were explored.

SLC25A1 [9] = target: SLC25A1 (Homo sapiens, UniProt P53007); details: previous studies performed in vitro (Fernandez et al.); cited from earlier work
SLC25A1 (Homo sapiens, UniProt P53007), sequence (P53007 14-311, species assumed): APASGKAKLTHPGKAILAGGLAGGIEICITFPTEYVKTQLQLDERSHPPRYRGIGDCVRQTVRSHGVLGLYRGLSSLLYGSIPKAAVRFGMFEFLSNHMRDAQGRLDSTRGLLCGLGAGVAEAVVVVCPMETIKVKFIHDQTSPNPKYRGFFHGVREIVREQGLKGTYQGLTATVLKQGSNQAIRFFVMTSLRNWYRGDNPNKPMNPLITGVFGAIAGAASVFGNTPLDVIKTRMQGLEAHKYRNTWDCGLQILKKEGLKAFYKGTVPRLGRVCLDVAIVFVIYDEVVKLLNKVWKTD

[10] = HFD-fed mice, CTPI-2 50 mg/kg i.p. alternate days
[11] = time course of CTPI-2 treatment
[12] = HFD-fed mice, CTPI-2 vs vehicle
[13] = liver, 4 weeks of CTPI-2 treatment
[14] = liver, normalized to HFD-vehicle

## O=C(O)c1ccccc1NS(=O)(=O)c1ccc(Cl)c([N+](=O)[O-])c1 [CTPI-2]
[1]; C57BL/6J mice, CTPI-2 50 mg/kg i.p. on alternate days
  feeding behavior (daily food consumption): did not modify feeding behavior
[1]; HFD 6 months, CTPI-2 50 mg/kg i.p. alternate days, started after 12 weeks of HFD
  body weight gain: largely prevented such weight gain
[1]; [10]
  WAT (visceral abdominal fat), also by MRI: reducing the WAT
  WAT weight (mass): reducing their mass
  liver weight (mass): reducing their mass
  pale, enlarged liver phenotype (visual examination): completely reverted this phenotype
[2]
  body weights: did not modify body weights
Liver of HFD-fed mice [3]; HFD conditions
  prevention of liver steatosis relative to Cre/Alb+:Slc25a1−/− mice: more effectively prevented liver steatosis
Liver of HFD-fed mice [3]; [10]
  alanine aminotransferase (ALT) levels: normalized
  total serum cholesterol levels: normalized
Liver of HFD-fed mice [3]; HFD-fed mice, CTPI-2 50 mg/kg i.p. alternate days, LC-MS
  serum triglyceride levels: normalized
Liver of HFD-fed mice [3]; HFD-fed mice, CTPI-2 started after 3 months HFD
  evolution to steatohepatitis: prevented the evolution to steatohepatitis
Liver of HFD-fed mice [3]; HFD-fed mice, CTPI-2 started after 3 months HFD, 4, 8, 12 weeks treatment
  liver steatosis: nearly completely reversed liver steatosis
Liver of HFD-fed mice [3]; after 3 months of CTPI-2 and 6 months on the HFD, most treated mice
  liver histology compared with normal-diet animals: nearly indistinguishable from those of animals fed a normal diet
Liver of HFD-fed mice [3]; steatosis present after 3 months HFD when CTPI-2 started
  early stages of steatosis: reverted these early stages of steatosis
HFD-fed mice [4]; CTPI-2 50 mg/kg i.p. alternate days
  basal fasting glucose levels: reduced the basal fasting glucose levels
HFD-fed mice [4]; [11]
  glucose tolerance test (GTT): complete time-dependent normalization
  insulin tolerance test (ITT): complete time-dependent normalization
SLC25A1 [5]
  SLC25A1 expression levels in the adipose tissue: reduced SLC25A1 expression levels
  SLC25A1 expression levels in the liver: reduced SLC25A1 expression levels
  SLC25A1 expression levels in the pancreas: not in the pancreas
HFD-fed mice [6]; HFD-fed mice
  collagen in the liver (Picro-Sirius Red): reduction of collagen in the liver
HFD-fed mice [6]; [12]
  circulating serum IL-4: increasing
  circulating serum IL-6: lowered
  circulating serum IL-10: increasing
HFD-fed mice [6]; HFD-fed mice, serum
  monocyte chemo-attractant protein-1 (MCP1): reduced
  monokine induced by interferon-γ (MIG): reduced
HFD-fed mice [6]; HFD-fed mice, IHC
  adipose tissue macrophage infiltration organized in crown-like structures: completely resolved this phenotype
  liver Kupffer cell macrophage population (F4/80) and perivascular macrophage infiltration: reversed
HFD-fed mice [6]; liver of HFD-fed mice, RT-PCR
  M2 markers (MRC1, FN-1, Arg1) mRNA: either not affecting or increasing
  expression of anti-fibrotic cadherin 1: increase
  expression of pro-fibrotic genes (collagen 1 and 4, keratin 19, PDGFR): reduction
  pro-inflammatory markers of the M1 phenotype (mRNA): repressed
[7]; liver
  bile acid biosynthetic pathway (RNAseq): inhibits bile acid biosynthetic pathway
[7]; liver and adipose tissue
  protein levels matching the gene expression pattern (immunoblot): concordantly paralleled by changes in the protein levels
[7]; [13]
  cluster of genes involved in NAFLD (RNAseq): down-regulated
  gene expression program induced by the HFD (RNAseq): essentially reverted the gene expression program induced by the HFD
[7]; liver, RT-qPCR
  levels of PPARγ: unchanged
[7]; [14]
  PPARγ and downstream target genes CEBPα1, CEBPα2 and GLUT4 (RT-qPCR): down-regulated
  master lipogenetic genes SREBP1, FASN and ACACA (RT-qPCR): suppression
[7]; liver, Fbp1, PC, PCK1/2, G6PC, G6PC3, AldoA/B, PFKL/P, PGK1, PKLR
  genes/pathways of carbon and pyruvate metabolism, glycolysis and gluconeogenic genes (RNAseq): repressed
Liver of HFD-fed mice [8]; HFD+CTPI-2 vs HFD-vehicle
  Ac-CoA concentration in the liver: significantly lower
  citrate concentration in the liver: significantly lower
Liver of HFD-fed mice [8]; LC-MS
  liver diglycerides levels: reduced the levels
  liver linoleic acid levels: reduced the levels
  liver monoglycerides levels: reduced the levels
  liver palmitic acid levels: reduced the levels
  liver phosphatidylglycerol levels: reduced the levels
Liver of HFD-fed mice [8]; Lipidyzer platform
  liver concentration of long chain triglycerides: significantly diminished
Liver of HFD-fed mice [8]; Lipidyzer platform, particularly chain 16 to 25
  total level of free fatty acids in the liver: significantly diminished
Liver of HFD-fed mice [8]; targeted LC-MS
  liver concentration of lactate: decreased
  liver concentration of pyruvate: decreased
HepG2 cells; 5 mM sodium citrate
  effect of citrate supplementation on CTPI-2 gene inhibition (FASN, ACACA, AldoA, Aldo/B): completely rescued by citrate
HepG2 cells; CTPI-2 5-12 hours
  expression of FA synthesis genes FASN and ACACA: inhibited
  expression of glycolytic/gluconeogenesis genes AldoA and Aldo/B: inhibited
SLC25A1 [9]
  SLC25A1 expression levels in vitro: did not affect the expression levels of this protein
  mitochondrial citrate transport activity: interfered with the mitochondrial citrate transport activity
